21 compounds from patent US9512142B2, “Tricyclic triazolic compounds” (LABORATORIOS DEL DR. ESTEVE S.A., priority 2013, dated 2016) can be followed below.

Where two headings read alike, the source gives them in different places.

Data set [1] addresses T1, human sigma 1 receptor (Homo sapiens, UniProt Q99720).
T1 construct: expressed in transfected cells; host or cells: HEK-293
Nature of the data set: Human sigma 1 receptor radioligand assay ([3H](+)-pentazocine, transfected HEK-293 membranes). The format is binding. Conditions: 5 nM [3H](+)-pentazocine, transfected HEK-293 membranes, 37° C., 120 minutes; read-out: Ki. As for the experimental part:
Human Sigma 1 Receptor Radioligand Assay
The assay was carried out with 7 μg of membrane suspension, 5 nM of [^3H](+)-pentazocine in either absence or presence of either buffer or 10 μM Haloperidol for total and non-specific binding, respectively. Binding buffer contained Tris-HCl 50 mM at pH 8. Plates were incubated at 37° C. for 120 minutes. After the incubation period, the reaction mix was then transferred to MultiScreen HTS, FC plates (Millipore), filtered and plates were washed 3 times with ice-cold 10 mM Tris-HCL (pH7.4). Filters were dried and counted at approximately 40% efficiency in a MicroBeta scintillation counter (Perkin-Elmer) using EcoScint liquid scintillation cocktail.

Data set [2] can be described thus: Kinetic solubility. Conditions: kinetic from dmso stock, buffered aqueous solution at pH=7.4, 10 μL of 10 mM DMSO solution in 1 mL, stirred 4 hours, supernatant by liquid chromatography, read-out: Kin. Solub. The format is physicochemical. As for the experimental part: To a buffered aqueous solution at pH=7.4 (1 mL), a 10 mM DMSO solution of the test compound (10 μL) was added and the mixture stirred for 4 hours. After centrifugation, the compound concentration in the supernatant was determined by liquid chromatography by fitting in a calibration curve of the compound.

Where [3] appears, read: buffered aqueous solution, pH 7.4, aqueous buffer.

By Ki is commonly meant the dissociation constant of the complex between target and ligand, obtained from inhibition or displacement.

T1 sequence (Q99720 whole entry): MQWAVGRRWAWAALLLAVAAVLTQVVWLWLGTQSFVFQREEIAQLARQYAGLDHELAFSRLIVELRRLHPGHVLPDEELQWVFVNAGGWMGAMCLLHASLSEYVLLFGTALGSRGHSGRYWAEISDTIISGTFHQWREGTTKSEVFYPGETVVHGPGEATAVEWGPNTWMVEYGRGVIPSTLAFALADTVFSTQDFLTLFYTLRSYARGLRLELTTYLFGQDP

Consider `Cl.Fc1ccc(-c2nnn3c2CO[C@@H]2CN(CC4CCOCC4)C[C@H]23)c(Cl)c1` [Example 42, (5aR,8aR)-3-(2-chloro-4-fluorophenyl)-7-((tetrahydro-2H-pyran-4-yl)methyl)-4,5a,6,7,8,8a-hexahydropyrrolo[3,4-b][1,2,3]triazolo[1,5-d][1,4]oxazine hydrochloride], for which, in data set [1], the Ki was found to be 33.3 nM. For the same compound, the solubility at 4 h in data set [2] (setting [3]) was over 10 µM.

Regarding `Cl.Fc1ccc(-c2nnn3c2CO[C@H]2CN(CC4CCOCC4)C[C@@H]23)c(Cl)c1` [Example 43, (5aS,8aS)-3-(2-chloro-4-fluorophenyl)-7-((tetrahydro-2H-pyran-4-yl)methyl)-4,5a,6,7,8,8a-hexahydropyrrolo[3,4-b][1,2,3]triazolo[1,5-d][1,4]oxazine hydrochloride], the Ki in data set [1] turned out to be 20.5 nM. The solubility at 4 h in data set [2] (setting [3]) is over 10 µM.

For the compound `Cl.Clc1ccc(-c2nnn3c2CO[C@H]2CN(C4CCOCC4)C[C@@H]23)c(Cl)c1` [Example 46, (5aS,8aS)-3-(2,4-dichlorophenyl)-7-(tetrahydro-2H-pyran-4-yl)-4,5a,6,7,8,8a-hexahydropyrrolo[3,4-b][1,2,3]triazolo[1,5-d][1,4]oxazine hydrochloride], the Ki in data set [1] was 15.1 nM. The solubility at 4 h in data set [2] (setting [3]) is over 10 µM.

Take `Cl.Fc1ccc(-c2nnn3c2CO[C@@H]2CN(CCC4CCOCC4)C[C@H]23)c(Cl)c1` [Example 47, (5aR,8aR)-3-(2-chloro-4-fluorophenyl)-7-(2-(tetrahydro-2H-pyran-4-yl)ethyl)-4,5a,6,7,8,8a-hexahydropyrrolo[3,4-b][1,2,3]triazolo[1,5-d][1,4]oxazine hydrochloride]: the Ki in data set [1] turned out to be 26.8 nM. For the same compound, the solubility at 4 h in data set [2] (setting [3]) is over 10 µM.

On to `Cl.Fc1ccc(-c2nnn3c2CO[C@H]2CN(CCC4CCOCC4)C[C@@H]23)c(Cl)c1` [Example 48, (5aS,8aS)-3-(2-chloro-4-fluorophenyl)-7-(2-(tetrahydro-2H-pyran-4-yl)ethyl)-4,5a,6,7,8,8a-hexahydropyrrolo[3,4-b][1,2,3]triazolo[1,5-d][1,4]oxazine hydrochloride], for which the Ki in data set [1] came to 11.7 nM. The solubility at 4 h in data set [2] (setting [3]) was over 10 µM.

Consider `COc1ccc(CN2C[C@@H]3[C@@H](C2)OCc2c(-c4ccc(F)cc4Cl)nnn23)cn1.Cl` [Example 49, (5aR,8aR)-3-(2-chloro-4-fluorophenyl)-7-((6-methoxypyridin-3-yl)methyl)-4,5a,6,7,8,8a-hexahydropyrrolo[3,4-b][1,2,3]triazolo[1,5-d][1,4]oxazine hydrochloride], for which the Ki in data set [1] worked out at 112 nM. Besides, the solubility at 4 h in data set [2] (setting [3]) is over 10 µM.

Consider `COc1ccc(CN2C[C@@H]3OCc4c(-c5ccc(F)cc5Cl)nnn4[C@H]3C2)cn1.Cl` [Example 50, (5aS,8aS)-3-(2-chloro-4-fluorophenyl)-7-((6-methoxypyridin-3-yl)methyl)-4,5a,6,7,8,8a-hexahydropyrrolo[3,4-b][1,2,3]triazolo[1,5-d][1,4]oxazine hydrochloride], for which the Ki in data set [1] was determined as 99.9 nM. Also, the solubility at 4 h in data set [2] (setting [3]) was over 10 µM.

As for `COc1ccc(CN2C[C@@H]3[C@@H](C2)OCc2c(-c4ccc(F)cc4F)nnn23)cn1.Cl` [Example 51, (5aR,8aR)-3-(2,4-difluorophenyl)-7-((6-methoxypyridin-3-yl)methyl)-4,5a,6,7,8,8a-hexahydropyrrolo[3,4-b][1,2,3]triazolo[1,5-d][1,4]oxazine hydrochloride], the Ki in data set [1] stood at 234 nM. Besides, the solubility at 4 h in data set [2] (setting [3]) was over 10 µM.

As to `COc1ccc(CN2C[C@@H]3OCc4c(-c5ccc(F)cc5F)nnn4[C@H]3C2)cn1.Cl` [Example 52, (5aS,8aS)-3-(2,4-difluorophenyl)-7-((6-methoxypyridin-3-yl)methyl)-4,5a,6,7,8,8a-hexahydropyrrolo[3,4-b][1,2,3]triazolo[1,5-d][1,4]oxazine hydrochloride], in data set [1], the Ki was 272 nM. Also, the solubility at 4 h in data set [2] (setting [3]) was over 10 µM.

`Cl.Clc1ccc(-c2nnn3c2CO[C@H]2CN(CCC4CCOCC4)C[C@@H]23)c(Cl)c1` [Example 53, (5aS,8aS)-3-(2,4-dichlorophenyl)-7-(2-(tetrahydro-2H-pyran-4-yl)ethyl)-4,5a,6,7,8,8a-hexahydropyrrolo[3,4-b][1,2,3]triazolo[1,5-d][1,4]oxazine hydrochloride]: the Ki in data set [1] was found to be 16.8 nM. In addition, in data set [2] (setting [3]), the solubility at 4 h was over 10 µM.

For `Cl.Clc1ccc(-c2nnn3c2CO[C@@H]2CN(CCC4CCOCC4)C[C@H]23)c(Cl)c1` [Example 54, (5aR,8aR)-3-(2,4-dichlorophenyl)-7-(2-(tetrahydro-2H-pyran-4-yl)ethyl)-4,5a,6,7,8,8a-hexahydropyrrolo[3,4-b][1,2,3]triazolo[1,5-d][1,4]oxazine hydrochloride], the Ki in data set [1] is 71.4 nM. Moreover, the solubility at 4 h in data set [2] (setting [3]) was over 10 µM.

For `Cl.FC(F)(F)c1ccc(-c2nnn3c2CO[C@H]2CN(C4CCOCC4)C[C@@H]23)c(Cl)c1` [Example 55, (5aS,8aS)-3-(2-chloro-4-(trifluoromethyl)phenyl)-7-(tetrahydro-2H-pyran-4-yl)-4,5a,6,7,8,8a-hexahydropyrrolo[3,4-b][1,2,3]triazolo[1,5-d][1,4]oxazine hydrochloride], the Ki in data set [1] amounted to 23.3 nM. The solubility at 4 h in data set [2] (aqueous buffer) is over 10 µM.

In the case of `Cl.Clc1ccc(-c2nnn3c2CO[C@H]2CN(C[C@@H]4CCOC4)C[C@@H]23)c(Cl)c1` [Example 56, (5aS,8aS)-3-(2,4-dichlorophenyl)-7-(((S)-tetrahydrofuran-3-yl)methyl)-4,5a,6,7,8,8a-hexahydropyrrolo[3,4-b][1,2,3]triazolo[1,5-d][1,4]oxazine hydrochloride], in data set [1], the Ki was determined as 22.7 nM. In addition, the solubility at 4 h in data set [2] (setting [3]) is over 10 µM.

For the compound `Cl.Clc1ccc(-c2nnn3c2CO[C@@H]2CN(C[C@H]4CCOC4)C[C@H]23)c(Cl)c1` [Example 57, (5aR,8aR)-3-(2,4-dichlorophenyl)-7-(((R)-tetrahydrofuran-3-yl)methyl)-4,5a,6,7,8,8a-hexahydropyrrolo[3,4-b][1,2,3]triazolo[1,5-d][1,4]oxazine hydrochloride], the Ki in data set [1] was determined as 195 nM. Besides, the solubility at 4 h in data set [2] (setting [3]) is over 10 µM.

Take `Cl.Clc1ccc(-c2nnn3c2CO[C@H]2CN(C[C@H]4CCOC4)C[C@@H]23)c(Cl)c1` [Example 58, (5aS,8aS)-3-(2,4-dichlorophenyl)-7-(((R)-tetrahydrofuran-3-yl)methyl)-4,5a,6,7,8,8a-hexahydropyrrolo[3,4-b][1,2,3]triazolo[1,5-d][1,4]oxazine hydrochloride]: the Ki in data set [1] came out at 25.4 nM. For the same compound, the solubility at 4 h in data set [2] (setting [3]) was over 10 µM.

With `Cl.Clc1ccc(-c2nnn3c2CO[C@@H]2CN(C[C@@H]4CCOC4)C[C@H]23)c(Cl)c1` [Example 59, (5aR,8aR)-3-(2,4-dichlorophenyl)-7-(((S)-tetrahydrofuran-3-yl)methyl)-4,5a,6,7,8,8a-hexahydropyrrolo[3,4-b][1,2,3]triazolo[1,5-d][1,4]oxazine hydrochloride], the Ki in data set [1] is 181 nM. For the same compound, the solubility at 4 h in data set [2] (setting [3]) was over 10 µM.

As for `Cc1occc1CN1C[C@@H]2[C@@H](C1)OCc1c(-c3ccc(F)cc3F)nnn12.Cl` [Example 60, (5aR,8aR)-3-(2,4-difluorophenyl)-7-((2-methylfuran-3-yl)methyl)-4,5a,6,7,8,8a-hexahydropyrrolo[3,4-b][1,2,3]triazolo[1,5-d][1,4]oxazine hydrochloride], in data set [1], the Ki worked out at 102 nM. Further, the solubility at 4 h in data set [2] (setting [3]) is over 10 µM.

For the compound `Cc1occc1CN1C[C@@H]2OCc3c(-c4ccc(F)cc4F)nnn3[C@H]2C1.Cl` [Example 61, (5aS,8aS)-3-(2,4-difluorophenyl)-7-((2-methylfuran-3-yl)methyl)-4,5a,6,7,8,8a-hexahydropyrrolo[3,4-b][1,2,3]triazolo[1,5-d][1,4]oxazine hydrochloride], the Ki in data set [1] turned out to be 73.7 nM. Moreover, the solubility at 4 h in data set [2] (setting [3]) was over 10 µM.

`Cl.Fc1ccc(-c2nnn3c2CO[C@H]2CN(Cc4ccoc4)C[C@@H]23)c(F)c1` [Example 62, (5aS,8aS)-3-(2,4-difluorophenyl)-7-(furan-3-ylmethyl)-4,5a,6,7,8,8a-hexahydropyrrolo[3,4-b][1,2,3]triazolo[1,5-d][1,4]oxazine hydrochloride]: the Ki in data set [1] amounted to 39.2 nM. Also, the solubility at 4 h in data set [2] (setting [3]) was over 10 µM.

In the case of `Cl.Fc1ccc(-c2nnn3c2CO[C@@H]2CN(Cc4ccoc4)C[C@H]23)c(F)c1` [Example 63, (5aR,8aR)-3-(2,4-difluorophenyl)-7-(furan-3-ylmethyl)-4,5a,6,7,8,8a-hexahydropyrrolo[3,4-b][1,2,3]triazolo[1,5-d][1,4]oxazine hydrochloride], the Ki in data set [1] was found to be 37.7 nM. Also, the solubility at 4 h in data set [2] (setting [3]) was over 10 µM.

Regarding `Cl.Cn1nccc1-c1nnn2c1CO[C@@H]1CN(Cc3ccc(F)cc3)C[C@H]12` [Example 66, (5aR,8aR)-7-(4-fluorobenzyl)-3-(1-methyl-1H-pyrazol-5-yl)-4,5a,6,7,8,8a-hexahydropyrrolo[3,4-b][1,2,3]triazolo[1,5-d][1,4]oxazine hydrochloride], the Ki in data set [1] turned out to be 138 nM. In addition, the solubility at 4 h in data set [2] (aqueous buffer) was over 10 µM.
